Test results reported in US12673918B2, “Small molecule RPN13 inhibitors with antitumor properties” (The Johns Hopkins University, priority 2019, dated 2026).
Read-outs that look alike come from different tables or passages of the source.

What was measured:
[1] = tested on: polyubiquitinated proteins; assay: Western blot of polyubiquitinated proteins, SKOV3 cells; assay type: cell-based, human; conditions: 4 h
Experimental: FIG. 14A illustrates SKOV3 cells treated with compounds for 4 h and analyzed by Western blot analysis with antibody to ubiquitin.
Antibodies, reagents, and Western Blot Analyses: Cell lysate (10-20 μg total protein) prepared in MPER (Pierce) from each sample was subjected to SDS-PAGE, transferred to PVDF membranes and analyzed by Western blot using antibodies specific Bax (#2772, Cell Signaling), ubiquitin (P4D1, sc-8017, Santa Cruz), PARP (#9542, BD Pharmingen), actin (#66009, Protein Tech Group), Tubulin(#66031, Protein Tech Group), ADRM1/Rpn13 (D9Z1U, #12019, Cell Signaling), Lys48-linkled ubiquitin (Apu 2, 05-1307, (Millipore), Annexin V (#559763, BD pharmingen), caspase-3 (51-68655X, BD Pharmingen) at the dilutions recommended by the manufacturers, and for secondary antibodies either peroxidase-linked anti-mouse IgG or anti-rabbit IgG (GE Healthcare UK Ltd) were utilized, HRP conjugated streptavidin (N100, Thermo Fisher) at the recommended dilution (1:5000). MitoTracker Red CMXRos reagent was purchased from ThermoFisher #M7512. The blots were developed using HyGLO chemiluminescent detection reagent (Denville).

UWB1.289 = assay: MTT cytotoxicity assay, UWB1.289; conditions: UWB1289, read-out: cytotoxicity IC50 UWB1.289
Experimental: (§1) Cell lines and cytotoxicity assays: All cell lines were obtained from the American Type Culture Collection (ATCC) and cultured in the specified medium supplemented with 10% fetal bovine serum, 100 IU/mL penicillin, and 100 μg/mL streptomycin at 37° C. in a humidified 5% CO2/95% air incubator. […] To assess drug cytotoxicity, cells were seeded at 2,500 cells/well (10,000 cells/well for MM lines) in 100 μL medium in 96-well plate and after 24 treated with compounds for 72 h, incubated according to the manufacturer's protocol with the Thiazolyl Blue Tetrazolium Bromide (Sigma, M2128) and A570 measured using a Benchmark Plus microplate spectrophotometer (BIO-RAD). IC50 data was analyzed by Graphpad Prism software. In the chirality studies the cells were treated with compounds for 48 h, and the cells were incubated and measured via the preceeding protocols.

BR5-Luc = assay: MTT cytotoxicity assay, BR5-Luc; conditions: read-out: cytotoxicity IC50 BR5-Luc, Tables 3A/4B/4C, BRCA2 − VE
ID8-VegfDefb29 tumor = assay: in vivo; assay type: in vivo, C57BL/6 mice
Experimental: To assess therapeutic efficacy the ID8-VegfDefb29 cell line was utilized in a syngeneic mouse model of ovarian cancer expressing luciferase (62). ID8 was first derived from spontaneous malignant transformation of C57BL/6 mouse ovarian surface epithelial cells in vitro (69). ID8-Vegf Defb29 cells represent a more aggressive variant of ovarian cancer in which VEGF provides vascular growth which is augmented by the presence of DEFB29 (62). C57BL/6 mice were injected i.p. with ID8-VegfDefb29 cells stably expressing firefly luciferase (0.5×10^6 cells) in PBS (100 μL). After 72 hrs, mice were imaged for their basal luminescence levels using an IVIS200 imager. Mice with visible luminescence were randomized into equal groups including vehicle (n=8), RA414 (3 mg/Kg, n=8), RA414 (10 mg/Kg, n=8) and treated every three days for up to 3 weeks. Mice were imaged every week to measure bioluminescence expressed by tumor after administration of luciferin. […] On day 24 two mice were sacrificed after collection of ascites, and the remainder required euthanasia on day 31 (FIGS. 17A and 17B). Administration of RA414 at 10 mg/kg (3 doses delivered every three days) regressed the tumor completely in 50% of the mice with less than 10% weight loss. […] This is consistent with proteasome inhibition within the ascites cells by the […] RA414 treatment regimen.
Tumor Studies: Female C57BL6 or Nude mice were inoculated with 10^6 ES2-Luciferase cells i.p. in 100 uL PBC, or ID8-VegfDefb29 syngeneic mouse model of ovarian cancer expressing luciferase (62) i.p. in 100 μL PBS. At day 3, mice were imaged for basal level luminescence activity with a Xenogen IVIS 200 after injection i.p. with luciferin (0.3 mg in 100 water). Mice were randomized into two groups (n=8) and treated i.p. with compounds or vehicle (25% (w/v) β-Hydroxypropylcyclodextrin in water), and imaged again on days 7 and 14. RA375 was administered i.p. at 10 mg/Kg.

[2] = tested on: proteasome (4UbFL reporter); assay: 4UbFL reporter in leg muscle of CD1 mice; assay type: in vivo
Experimental: Pilot safety studies were performed in CD1 mice (n=3/dose group of healthy female mice aged 6-8 weeks) with increasing single doses delivered i.p. and the NOAEL (no-observed-adverse-effect level) was selected for further animal studies. […] Bortezomib was dissolved in a minimal amount of DMSO and further diluted with saline before injection in a dose finding study. […] To measure on-target inhibition of proteasome activity in mice, a leg muscle of CD-1 mice was transduced with the 4UbFL reporter construct. […] Briefly, mouse leg muscle was electroporated with 4UbFL plasmid and basal bioluminescence was measured after 24 hr using IVIS200 imager after injecting luciferin substrate. Mice were randomized (n=5/group) and treated with compounds in PEG400: Cremophor: Tween40 combination or vehicle alone as shown in Table 5 with one dose delivered by intraperitoneal injection. The mice were again imaged at 4 h, 24 h, 48 h post treatment.

OV2008 = assay: MTT cytotoxicity assay, OV2008; conditions: read-out: cytotoxicity IC50 OV2008
Experimental: as §1

[3] = Repeat dose MTD in healthy female CD1 mice; conditions: mouse, in vivo, 3 repeated doses every third day
From the text: The starting doses were based on previous studies with RA183. Doses were escalated incrementally in steps of not more than 50%. When either of these endpoints was met, dose escalation was halted and the prior dose was set as the MTD.

A2780 = conditions: human
HeLa = conditions: human
OVCAR5 = assay: MTT cytotoxicity assay, OVCAR5; assay type: cell-based; conditions: Homo sapiens, read-out: IC50 OVCAR5
Experimental: (§2) Cell lines and cytotoxicity assays: All cell lines were obtained from the American Type Culture Collection (ATCC) and cultured in the specified medium supplemented with 10% fetal bovine serum, 100 IU/mL penicillin, and 100 μg/mL streptomycin at 37° C. in a humidified 5% CO2/95% air incubator. […] To assess drug cytotoxicity, cells were seeded at 2,500 cells/well (10,000 cells/well for MM lines) in 100 μL medium in 96-well plate and after 24 treated with compounds for 72 h, incubated according to the manufacturer's protocol with the Thiazolyl Blue Tetrazolium Bromide (Sigma, M2128) and A570 measured using a Benchmark Plus microplate spectrophotometer (BIO-RAD). IC50 data was analyzed by Graphpad Prism software.

ANBL6-V10R = assay: MTT cytotoxicity assay, ANBL6-V10R; assay type: cell-based; conditions: read-out: IC50 ANBL6-V10R
Experimental: The cytotoxic efficacy of selected compounds was assessed against multiple myeloma (MM) cell lines, as this is a validated clinical target for the licensed proteasome inhibitors.
as §2

ID8 (murine) = assay: MTT cytotoxicity assay, ID8; assay type: cell-based; conditions: Mus musculus, 48 h, read-out: IC50 ID8 (murine)
MCF7 = assay: MTT cytotoxicity assay, MCF7; conditions: read-out: cytotoxicity IC50 MCF7, Tables 3A/4B/4C
VU93 = assay: MTT cytotoxicity assay, VU93; conditions: read-out: cytotoxicity IC50 VU93, Tables 3A/4B/4C
[4] = 3 mg/Kg, 9 doses delivered every three days

**Q.** With `C[C@H]1/C(=C\c2ccc([N+](=O)[O-])cc2)C(=O)/C(=C/c2ccc([N+](=O)[O-])cc2)CN1C(=O)[C@@H](N)Cc1ccccc1` as the compound, how does the “accumulation of polyubiquitinated proteins” value (“accumulation” for short) [1] read?
**A.** The value was “enhanced the accumulation of polyubiquitinated proteins”.

**Q.** And the IC50 (UWB1.289)?
**A.** The IC50 was 43.9 nM.

**Q.** What about the IC50 (BR5-Luc) of the same compound?
**A.** Its IC50 is 5.7 nM.

**Q.** What about the “tumor burden compared to vehicle” value (ID8-VegfDefb29 tumor; 15 mg/Kg every 3 days, total 5 doses, day 17, p<0.0001) of the same compound?
**A.** The value was “significant decrease in tumor burden”.

**Q.** What about the “fold increased bioluminescence (4UbFL, leg muscle)” value ([2]; CD1 mice, 30 mg/kg i.p., PEG400: Cremophor: Tween40, at 4 h and 24 h) of the same compound?
**A.** The value was 4-6 fold.

**Q.** What about the “fold increased bioluminescence (4UbFL, leg muscle)” value ([2]; mouse, in vivo, ip, 30 mg/kg) of the same compound?
**A.** The value was 14-22 fold.

**Q.** And the IC50 (OV2008)?
**A.** Its IC50 is 40 nM.

**Q.** And the MTD [3]?
**A.** Its MTD is 20 mg/kg.

**Q.** And the IC50 (A2780)?
**A.** Its IC50 is 20 nM.

**Q.** What about the IC50 (HeLa) of the same compound?
**A.** The IC50 was 23 nM.

**Q.** For `CC(C)C[C@H](NC(=O)[C@H](Cc1ccccc1)NC(=O)c1cnccn1)B(O)O` [Bortezomib, bortezomib, reference compound], which “accumulation” value [1] is on record?
**A.** The value was “enhanced the accumulation of polyubiquitinated proteins”.

**Q.** What about the IC50 (BR5-Luc) of the same compound?
**A.** The IC50 was 4.1 nM.

**Q.** For `N[C@@H](Cc1ccccc1)C(=O)N1C/C(=C\c2ccc([N+](=O)[O-])cc2)C(=O)/C(=C/c2ccc([N+](=O)[O-])cc2)C1` [RA183, reference compound], which “accumulation” value [1] is on record?
**A.** Its value is “enhanced the accumulation of polyubiquitinated proteins”.

**Q.** And the IC50 (OVCAR5; OVCAR-5, 48 h)?
**A.** Its IC50 is 56 nM.

**Q.** And the IC50 (OV2008)?
**A.** Its IC50 is 80 nM.

**Q.** And the IC50 (ANBL6-V10R; 48 h)?
**A.** Its IC50 is 103 nM.

**Q.** And the IC50 (ID8 (murine))?
**A.** Its IC50 is 198 nM.

**Q.** For `N[C@@H](Cc1ccccc1)C(=O)N1C/C(=C\c2ccc(Cl)c(Cl)c2)C(=O)/C(=C/c2ccc(Cl)c(Cl)c2)C1` [RA190, reference compound], which IC50 (OVCAR5; OVCAR-5, Table 3, MTT, 48 hr, Ovarian) is on record?
**A.** The IC50 was 64 nM.

**Q.** And the IC50 (MCF7)?
**A.** The IC50 was 750 nM.

**Q.** What about the IC50 (BR5-Luc) of the same compound?
**A.** The IC50 was 38 nM.

**Q.** And the IC50 (ANBL6-V10R; Table 3, MTT, 48 hr, Multiple Myeloma, bortezomib resistant)?
**A.** Its IC50 is 55 nM.

**Q.** What about the IC50 (VU93) of the same compound?
**A.** Its IC50 is 625 nM.

**Q.** With `O=C(CCl)N[C@@H](Cc1ccccc1)C(=O)N1C/C(=C\c2ccc([N+](=O)[O-])cc2)C(=O)/C(=C/c2ccc([N+](=O)[O-])cc2)C1` [RA375] as the compound, how does the IC50 (OVCAR5; OVCAR-5, 48 h) read?
**A.** The IC50 was 12 nM.

**Q.** And the IC50 (ANBL6-V10R; 48 h)?
**A.** The IC50 was 16 nM.

**Q.** What about the IC50 (ID8 (murine)) of the same compound?
**A.** The IC50 was 44 nM.

**Q.** What about the IC50 (A2780) of the same compound?
**A.** Its IC50 is 37 nM.

**Q.** What about the IC50 (HeLa) of the same compound?
**A.** Its IC50 is 13 nM.

**Q.** Which “accumulation” value [1] does the source give for `CC1/C(=C\c2ccc([N+](=O)[O-])cc2)C(=O)/C(=C/c2ccc([N+](=O)[O-])cc2)CN1C(=O)[C@H](Cc1ccccc1)NC(=O)CCl` (stereo partly shown) [RA414] here?
**A.** The value was “enhanced the accumulation of polyubiquitinated proteins”.

**Q.** And the IC50 (UWB1.289)?
**A.** The IC50 was < 20 nM.

**Q.** And the IC50 (MCF7)?
**A.** Its IC50 is 75 nM.

**Q.** What about the tolerability (ID8-VegfDefb29 tumor; [4]) of the same compound?
**A.** The tolerability was “well tolerated”.

**Q.** And the tumor growth (ID8-VegfDefb29 tumor; [4])?
**A.** Its tumor growth is “inhibited tumor growth”.

**Q.** And the “mice with tumor regressed completely” value (ID8-VegfDefb29 tumor; 10 mg/kg, 3 doses delivered every three days)?
**A.** Its value is 50%.

**Q.** And the “mice that did not tolerate the dose (>10% weight loss) or died” value (ID8-VegfDefb29 tumor; 10 mg/kg, 3 doses delivered every three days, tumor-bearing mice)?
**A.** Its value is 50%.

**Q.** What about the “duration of on-target activity (4UbFL, leg muscle)” value ([2]; CD1 mice, 3 mg/kg i.p., PEG system) of the same compound?
**A.** Its value is “on-target activity over 72 hr similar to bortezomib”.

**Q.** And the IC50 (VU93)?
**A.** The IC50 was 40 nM.

**Q.** And the MTD [3]?
**A.** The MTD was 10 mg/kg.
